According to PubChem BioAssay AID463229 (Broad Institute, 2010):

These molecules were tested on INS-1E rat beta cells, no cytokines, CellTiter-Glo ATP, 48 h (assay: ATP level change in INS-1E without cytokines, dose response, counter-screen for beta-cell apoptosis protection project, INS-1E rat cells, ATP luminescence, cherry pick (AID 463229)).

SMILES	AC50 [µM]
COc1cc(CNC(C)c2ccccc2)cc(Br)c1OCc1ccc(F)cc1 (configuration not stated)	13.8
CCOC(=O)c1ccc(NC(=O)c2cccnc2)cc1	6.64
C=C(C(=O)c1ccccc1)C(C(=C)C(=O)c1ccccc1)c1ccc(OC)cc1	7.54
COc1ccc(CN(C)c2ccc(S(=O)(=O)N3CCN(C)CC3)cc2[N+](=O)[O-])cc1OC	2.83
O=C(c1ccc([N+](=O)[O-])s1)N1CCN(c2cccc(Cl)c2)CC1	19.3
CCCCCn1c(=O)c(C(=O)Nc2nc3ccccc3[nH]2)c(O)c2ccccc21	7.03
Cc1cc(C2CCCCC2)n(O)c(=O)c1	2.69
CCN1CCN(Cc2ccc(NC(=O)c3cc(NC(=O)c4cncc(-c5ccc(C#N)cc5)c4)cc(OC)c3)cc2C(F)(F)F)CC1	10.8
CCN(CC)CCOc1ccc2c(c1)C(=NO)c1cc(OCCN(CC)CC)ccc1-2	14.1
CCN(CC)c1ccc(/C=N/N(c2ccccc2)c2ccccc2)c(O)c1	4.58
Cc1cccc(NC(=O)c2ccc([N+](=O)[O-])s2)c1C	26.1
Cn1nccc1C(=O)NC1CCCc2c1cnn2-c1ccccc1F (configuration not stated)	3.16
CCN(CC)S(=O)(=O)c1ccc(Cl)c(C(=O)Nc2ccc(Cl)cc2[N+](=O)[O-])c1	7.97
CC(=O)c1ccc(NC(=S)NCc2cccnc2)cc1	5.53
CCCC(=O)NC(c1ccc(N(C)C)cc1)c1ccc2cccnc2c1O (configuration not stated)	2.08
O=C(/C(=C/c1ccc(Cl)cc1)c1nc2ccccc2[nH]1)c1cccs1	4.4
Cc1sc2ncnc(N3CCN(S(=O)(=O)c4ccccc4)CC3)c2c1C	5.98
CCCN(CCC)c1nc(-c2ccccn2)nc2ccccc12	4.34
COc1nnc(-c2ccc(N3CCCCC3)c(NC(=O)C3CCCCC3)c2)c2ccccc12	5.25
COc1ccc(-c2nc(NC(=O)c3cc(C(C)(C)C)nn3C)sc2C)cc1	17.6
Nc1nc(N)c2cc(Sc3ccc4ccccc4c3)ccc2n1	2.09
O=c1[nH]c(=O)n(-c2ccc(F)cc2)c2c1C(C(F)(F)F)(C(F)(F)F)N=C(c1ccc(F)cc1)N2	6.05
Cc1cccc(NC(=S)N/N=C/c2ccc([N+](=O)[O-])s2)c1	7.67
COc1cccc(C(=O)Oc2c(CN3CCOCC3)cc(Cl)c3cccnc23)c1	14.3
CCN(CC)CCOc1ccc2c(c1)C(=NNC(=O)c1ccccn1)c1cc(OCCN(CC)CC)ccc1-2	13.8
c1ccc(C(c2ccccc2)N2CCN(c3nc4ccccc4n4cnnc34)CC2)cc1	4.73

SMILES	AC50 [µM]
Clc1ccc(CSc2ccc(-c3ccccn3)nn2)cc1	6.32
CC1CC(C)CN(S(=O)(=O)c2ccc(C(=O)NCCCn3ccnc3)cc2)C1 (configuration not stated)	0.577
C#CCOCCOCCOCCNc1nc(N2CCN(C(=O)CCCCCCCCCCNC(=O)[C@H]([C@@H](C)CC)n3cc(CCCCN=C(N)N)nn3)CC2)nc(N2CCN(C(=O)CCCCCCCCCCNC(=O)[C@H](CCCCN)n3cc(C)nn3)CC2)n1	6.28
O=C(c1ccc2c(c1)[nH]c(=S)n1c3ccccc3nc21)N1CCN(c2cccc(Cl)c2)CC1	14.5
CCCCCCc1cc2cc(C(=O)Nc3ccccc3)c(=O)oc2cc1O	3.24
O=C(CCC(=O)Nc1ccc(Br)cc1)N/N=C/c1ccccc1O	14.6
Cc1ccnc2c1ccc1c(C)ccnc12	3.39
C=C1C(O)[C@@H]2O[C@]3(CC[C@H](/C=C/C(C)[C@@H]4CC(C)=CC5(O[C@H](C[C@@](C)(O)C(=O)O)CCC5O)O4)O3)CC[C@H]2O[C@@H]1C(O)CC(C)[C@H]1OC2(CCCCO2)CCC1C (some centres not stated)	< 0.195
CCN(CC)S(=O)(=O)c1cc([N+](=O)[O-])ccc1NNC(=O)Nc1ccc(Cl)c(Cl)c1	6.54
Cc1nc(Nc2cnc(/C=C/c3cc(C(=O)Nc4cccc(C(F)(F)F)c4)ccc3C)cn2)cc(N2CCNCC2)n1	12.3
Cn1nc(C(C)(C)C)cc1C(=O)NCc1ccc2c(c1)OCO2	4.47
CC(=O)c1cccc(N=c2scc(-c3ccc(S(=O)(=O)N4CCOCC4)cc3)n2CCO)c1	3.22
CCOc1ccc(-c2c[n+]3c(n2-c2ccccc2)CCCCC3)cc1	0.982
O=C1C=C(Nc2ccccc2O)c2ccccc2C1=O	8.04
C=C[C@H](CC(C)C)N(Cc1ccccc1)S(=O)(=O)N(Cc1ccc(OC)cc1)[C@H](C=C)CC(C)C	5.73
CCC(C)(C)c1ccc(OCCCC[n+]2ccccc2)c(C(C)(C)CC)c1	2.27
CCN(CC)Cc1c(O)ccc2c1O/C(=C\C=C\c1ccccc1)C2=O	14.4
O=C(Nc1ccc(N2CCN(C(=O)c3ccc(Cl)cc3)CC2)cc1)c1cccnc1	18.7
COC(=O)C1CN(C#N)N(c2ccc(Cl)cc2)C12c1ccccc1-c1ccccc12 (configuration not stated)	4.26
COc1ccc(-c2cn(-c3ccc(OC)cc3)c3[n+]2-c2ccccc2CC3)cc1	0.806
COc1ccc(O)c(/C=N/NC(=O)c2ccc(CSc3nc(C)cc(C)n3)cc2)c1	11.2
Cc1cc(C)n(-c2nc(NCCN(C)C)c3c4c(sc3n2)CCCC4)n1	9.54
O=[N+]([O-])c1cc(/C=N/Nc2nc3ccccc3[nH]2)c(O)cc1O	2.01
Oc1ccc(CN2CCc3ccccc3C2)c2cccnc12	3.7
CC(C)(C)c1ccc(NNC(=O)C2CCC2)cc1	9.64
Cc1ccccc1OCC(O)CNC1CCC(NCC(O)COc2ccccc2C)CC1 (configuration not stated)	6.66
